Legend:
K562 cells [1] = experiment: Time-effect experiment, apoptosis of K562 cells; type: cell-based; conditions: 250 nM, after 48 hours
K562 cells [2] = experiment: Anti-K562 cell proliferation activity test (CCK-8); type: cell-based; conditions: Homo sapiens, 48 hours, read-out: median inhibitory concentration (IC50)
Experimental: The operation method of the anti-K562 cell proliferation activity test is as follows:
100 μL of K562 cell suspension and 10 μL of test compounds of different concentrations were prepared in a 96-well plate. The culture plate was placed in an incubator for incubation for 48 hours (37° C., 5% CO2). 10 μL of CCK-8 solution was added to each well. The culture plate was placed in an incubator for incubation for 1-4 hours. The absorbency was measured at 450 nm with a microplate reader. […] (%)=[A (with drug)−A (blank)]/[A (with 0 drug)−A (blank)]×100, wherein:
A (with drug): the absorbency of the wells containing cells, CCK-8 solution and drug solution
A (blank): the absorbency of wells containing medium and CCK-8 solution but no cells
A (with 0 drug): the absorbency of the wells containing cells and CCK-8 solution but no drug solution

[3] = Photo-isomerization by UV-Vis absorption spectrum; type: physicochemical
Experimental: Then, we explored the photodynamic characteristics of the compound 4C through UV-Vis absorption spectrum. […] In addition, since the compound 4C is a T-type optical switch, the cis configuration underwent self-heating relaxation under dark conditions to transform into the trans configuration, and T½ was about 10 hours at 25° C.

HCT116 = experiment: Cell viability test (CellTiter-Glo), HCT116; type: cell-based; conditions: HCT116, non-BCR-ABL dependent tumor cell line
Experimental: (§1) The operation method of the K562 cell viability test is as follows:
(§2) 50 μL of K562, MCF-7, HCT116 and A549 cell suspensions were added to a 96-well plate and incubated for 12 hours. 10 μL of compound was added to the well and incubated for 48 hours. Operation was performed according to a CellTiter-Glo® luminescent cell viability assay kit (Promega). Nonlinear regression analysis data in GraphPad Prism 6 was used.

BCR-ABL fusion protein = molecular target: T1, BCR-ABL fusion protein (Homo sapiens, UniProt P00519+P11274+Q96SW2, E27K); experiment: Simulated light control, BCR-ABL level in K562 cells (immunoblotting); type: cell-based; conditions: 100 nM for 24 hours, then fresh medium
T1 construct: By using BCR-ABL and CRBN positive K562 cell lines; endogenous in cells; host or cells: K562
Experimental: In order to simulate a light control process, the researchers treated K562 cells with the compound 4C-trans for 24 hours. Then the cells were transferred to fresh media and divided into 2 groups: one group was placed in a dark room (VIS group), and the other group was irradiated with UV after 0, 4, 8, 12, 16, and 24 hours of incubation to simulate the photo-isomerization process (UV group).
The specific operation method for simulating light control is as follows:
The compound 4C-trans at a final concentration of 100 nM was added to K562 cells, and the cells were incubated at 37° C. for 24 hours. The medium was washed off, and the cells were washed 2 times with 1*PBS. Then the cells were transferred to fresh 1640 medium (10% FBS, 1*glutamine) for culture, and divided into two groups: one group was placed in a dark room, and the other group was irradiated with UV-C light for 30 min every 4 hours. The cells were collected after transfer and incubation for 0, 4, 8, 16, and 24 hours respectively, and post-treatment of the cells was the same as that of immunoblotting.

MCF-7 breast cancer = experiment: Cell viability test (CellTiter-Glo), MCF-7; type: cell-based; conditions: non-BCR-ABL dependent tumor cell line
Experimental: as §1, §2

ABL gene = experiment: RT-qPCR, expression of the ABL gene in K562 cells; type: cell-based
From the text: In order to test the degradation effect of the compound 4C on c-ABL and BCR-ABL proteins in K562 cells, the researchers performed an immunoblotting experiment. […] In order to exclude the possibility that the compound 4C affected the ABL gene to generate false positive expression, the researchers used RT-qPCR in K562 cells to study the expression of the ABL gene.
The operation method of an RT-qPCR experiment is as follows:
According to the related gene information in the NCBI database, the coding sequences were selected, and primers were designed and synthesized by GenScript Biotechnology Corporation under entrustment. The sequences are as follows:
A K562 cell resuspension solution collected in a 1.5 mL centrifuge tube was centrifuged briefly. […] After mixing uniformly, the purity and concentration of the extracted RNA sample were detected using a spectrophotometer. […]
0.2 ml thin-walled PCR tubes were taken and numbered respectively. […] Water was added to each tube to 25 μl and mixed uniformly, and the mixed solutions were placed in an SLAN fluorescent quantitative PCR instrument. After pre-denaturation at 95° C. for 5 min, the mixed solutions were placed at 95° C. for 15 s→65° C. for 35 s (fluorescence detection), for 40 cycles.

## Cc1nc(Nc2ncc(C(=O)Nc3c(C)cccc3Cl)s2)cc(N2CCN(CCCCOc3ccc(/N=N/c4ccc(C(=O)Nc5cccc6c5CN(C5CCC(=O)NC5=O)C6=O)cc4)cc3)CC2)n1 (stereo not shown) [Compound 4C, (E)-N-(2-chloro-6-methylphenyl)-2-((6-(4-(4-(4-((4-((2-(2,6-dioxopiperidin-3-yl)-1-oxoisoindolin-4-yl)carbamoyl)phenyl)diazenyl)phenoxy)butyl)piperazin-1-yl)-2-methylpyrimidin-4-yl)amino)thiazole-5-carboxamide]
K562 cells [1]
  apoptosis of K562 cells: obvious apoptosis
K562 cells [2]
  IC50: 68 nM
[3]; UV irradiation for 1 hour
  transformation from trans to cis configuration (absorbency-time curve at 361 nm): almost completely transformed to the cis configuration
[3]; irradiated with ultraviolet light and white light in turn for 5 times
  reversibility of the photosensitive switch (stability): still relatively stable
HCT116
  effect on cell viability: hardly affects
BCR-ABL fusion protein; UV-C 30 min every 4 hours (UV group)
  BCR-ABL level after washout: increased over time
BCR-ABL fusion protein; dark room (VIS group), 0-24 hours
  BCR-ABL fusion protein level after washout: remained at a low level
MCF-7 breast cancer
  effect on cell viability: hardly affects
ABL gene; 500 nm, 48 hours
  mRNA level of the ABL gene, time-effect: did not significantly decrease
ABL gene; different concentrations, 36 hours, compared with control group
  mRNA level of the ABL gene, dose-effect: did not change significantly

— patent US11504385B2, “Proteolysis targeting chimeric molecule, preparation method, and application” (CHINA PHARMACEUTICAL UNIVERSITY, priority 2019, dated 2022)
